Entries after “also recorded” stand apart in the source; their conditions may differ. Like-named read-outs stand apart in the source and are kept apart here.

The source of these data is patent US20150182482A1, “EPROTIROME FOR USE IN THE PREVENTION AND/OR TREATMENT OF HAIR DISORDERS AND COMPOSITIONS THEREOF” (DR. AUGUST WOLFF GMBH & CO. KG ARZNEIMITTEL, priority 2012, published 2015).

Data set [1] deals with human scalp hair follicles. Kind of data set: Hair pigmentation, quantitative Masson-Fontana melanin staining of cultured hair follicles. Format: cell-based. To be noted: for melanin content, overall comparison: summary of the examples. The procedure:
(§1) Normal human scalp skin was obtained from women undergoing routine face-lift surgery after informed consent.
(§2) Test system: Philpott model (Philpott et al., J. Cell. Mol. Life Sci., 1990, 97: 463-471)
(§3) Mircodissected anagen VI hair follicles in 3 or 4 groups (3 HFs/well) were cultured at 6 days in a 24-well plate with 500 μl Williams E medium (Biochrom) supplemented with 100 IU/ml penicillin, 10 μg/ml streptomycin (Gibco), 10 μg/ml insulin (Sigma), 10 ng/ml hydrocortisone (Sigma) and 2 mmol/1 L-glutamine (Invitrogen).
(§4) Eprotirome, TRIAC, PF-277343 (1 pM, 100 pM) or vehicle were administered once for each change of medium (i.e. every 48 h).
(§5) Anagen HFs and HFs were immediately embedded in Shandon Cryomatrix and snap frozen in liquid nitrogen. Six longitudinal sections of HFs were processed for immunohistological stainings.
For histochemical visualization of melanin, Masson-Fontana staining was performed on frozen sections. Melanin was stained as brown dots and the degree of pigmentation was assessed by quantitative Masson-Fontana as described (Ito et al., Br. J. Dermatol, 2005, 152: 623-631). This method is a very sensitive and reliable indicator of changes in melanin synthesis, as shown by standard tyrosinase expression and enzyme activity assays (Kauser et al, FASEB J. 2006, 20:882-95). Staining intensity was analyzed in a defined reference region of the HF pigmentary unit and, using the ImageJ software (National Institute of Health).

Data set [2] has as its system human scalp hair follicles. Kind of data set: HF cycle staging in human hair follicle organ culture. To be noted: for hair cycle staging, macroscopic and microscopic, overall comparison: summary of the examples. The format is cell-based. The procedure: as §1, §2, §3, §4, §5
HF cycle staging was carried out according to defined morphological criteria, and the percentage of HFs in anagen and early, mid, or late catagen was determined.

Data set [3] has as its system TGFβ2. Kind of data set: TGFβ2 immunoreactivity in cultured hair follicles. Format: cell-based, human. The procedure:
as §1, §2, §3, §4, §5

For data set [4], the system named is hair matrix keratinocytes. Kind of data set: Ki-67/TUNEL double staining, proliferation and apoptosis measurements. Format: cell-based, human. The procedure:
as §1, §3, §5
To evaluate apoptotic cells in co-localization with a proliferation marker Ki-67, a Ki-67/terminal dUTP nick-end labelling (TUNEL) double-staining method was used. […] TUNEL-positive cells were visualized by an antidigoxigenin fluorescein isothiocyanate-conjugated antibody (ApopTag kit), whereas Ki-67 was detected by a rhodamine-labelled goat antimouse antibody (Jackson ImmunoResearch, West Grove, Pa.). Negative controls were performed by omitting terminal deoxynucleotidyl transferase and the Ki-67 antibody. Counterstaining was performed with 4′,6-diamidino-2-phenylindole (DAPI) (Roche Molecular Biochemicals GmbH, Mannheim, Germany). Quantitative immunohistomorphometry was performed; Ki-67-, TUNEL-, or DAPI-positive cells were counted in a previously defined reference region of the HF matrix and epidermis, and the percentage of Ki-67/TUNEL-positive cells was determined.

Data set [5] concerns hair growth. To be noted: mouse; cited from earlier work.
Data set [6] concerns human scalp hair follicles. Put plainly: Hair shaft elongation in human hair follicle organ culture (Philpott model). The format is cell-based. The procedure: as §1, §3
Hair shaft length measurements of HFs were performed every second day on individual HFs using a Zeiss inverted binocular microscope with an eyepiece measuring graticule.

For data set [7], the system named is MTCO1. Put plainly: MTCO1 protein expression (immunoreactivity) in cultured hair follicles. Format: cell-based, human. The procedure:
as §1, §2, §3, §4, §5

Data set [8] has as its system tyrosinase activity of hair follicles. Kind of data set: Tyrosinase activity of cultured hair follicles. Format: cell-based, human. The procedure:
as §1, §2, §3, §4, §5

The test system of data set [9] is hair growth. The settings on record: monkey; cited from earlier work.
Data set [10] relates to outer root sheath cells, dermal papilla cells, and fibrous sheath cells of hair follicles. To be noted: all these types of cells, significantly; cited from earlier work.
The subject of data set [11] is alopecia areata. The settings on record: topical; cited from earlier work.
Data set [12] has as its system CD rats. To be noted: topical; cited from earlier work.
In data set [13] the test system is human hair follicles. The settings on record: cited from earlier work.
The subject of data set [14] is human hair follicles. The settings on record: physiological level of free T3; cited from earlier work.
Data set [15] relates to SKH-1 mice. The settings on record: topical; cited from earlier work.
Data set [16] can be described thus: Penetration in human skin. Format: in vitro ADME.
The nature of data set [17]: Stability. The format is physicochemical.
The conditions of data set [18]: cited from earlier work.
The mark [19] stands for this setting: person two, after 6 days, macroscopically and microscopically.
[20] abbreviates: occipital scalp HFs, person two, 6 days culture.
[21] abbreviates: person two, 100 pM, anagen HFs and all HFs.

With `Cc1cc(-n2ncc(=O)[nH]c2=O)cc(C)c1Oc1ccc(O)c(Cc2ccc(F)cc2)c1` [PF-277343], in [1] (person three, 1 pM and 100 pM, all HFs), the melanisation result is reported as “significantly decreased”. Further, the melanin production result in data set [1] (person three, 100 pM, only anagen HFs (significant)) was “strong reduction”. Also, the “melanin content, overall comparison” value in data set [1] is “decrease in melanin content”. Moreover, the “macroscopic HF assessment (hair cycle staging)” value in data set [2] (person three, 1 pM) is “prematurely induces catagen”. Moreover, the “quantitative hair cycle histomorphometry” value in [2] (person three, 1 pM and 100 pM) is on record as “promoted premature catagen development”. For the same compound, the “hair cycle staging, macroscopic and microscopic, overall comparison” value (from here on “hair cycle staging … overall comparison”) in data set [2] is given as “caused hair follicles to enter the catagen phase prematurely”. In data set [3] (person three, 100 pM concentration group), the TGFβ2 immunoreactivity result is “significantly reduced”. In data set [4] (person three), the “proliferation (Ki-67) of hair matrix keratinocytes” value was “did not show effects”. For the same compound, the “apoptosis (TUNEL)” value in data set [4] (person three, 100 pM) is “slightly inhibited (not significant)”. For the same compound, the “efficacy in hair growth model” value in [5] and in [9] was “efficacious” in each case. In addition, in data set [6] (occipital scalp HFs, person three, 1 pM), the hair shaft elongation entry is on record as “slight (not significant) tendency towards inhibition”. In data set [6] (summary of the examples), the “hair shaft elongation, overall comparison” value is recorded as “tendency of a slight inhibition”. The MTCO1 protein expression entry in data set [7] (person three) is listed as “no significant change”. For the same compound, the tyrosinase activity entry in data set [8] (person three, 100 pM, anagen HFs and all HFs) is on record as “slightly upregulated”. For the same compound, the “tyrosinase activity upregulation, significance” value in data set [8] (person three, 100 pM, only anagen HFs) is given as “significant”.
For the compound `N[C@@H](Cc1cc(I)c(Oc2ccc(O)c(I)c2)c(I)c1)C(=O)O` [T3, 3,5,3′-triiodo-L-thyronine], the “proliferation and/or metabolism of hair follicle cell types” value in [10] is “stimulated”. Besides, in data set [11], the efficacy versus placebo result was “not more effective than placebo” and the safety entry is given as “safe”. The “epidermal proliferation, dermal thickening, and hair growth” value in data set [12] is given as “stimulate”. Also, in data set [13], the anagen duration entry is recorded as “prolong”, the “apoptosis of hair matrix keratinocytes (Ki-67/TUNEL staining)” value was “inhibited”, the “hair shaft elongation in vitro” value is on record as “did not translate to a significantly altered hair shaft elongation” and the “melanin synthesis in human hair follicles” value was “stimulate”. In addition, the “human hair survival in vitro” value in data set [14] is recorded as “significantly enhanced”. The “epidermal proliferation, dermal thickening, and hair growth” value in data set [15] is “stimulate”.
For the compound `N[C@@H](Cc1cc(I)c(Oc2cc(I)c(O)c(I)c2)c(I)c1)C(=O)O` [T4, 3,5,3′,5′-tetraiodo-L-thyronine], in [13], the anagen duration entry is given as “prolong”, the “apoptosis of hair matrix keratinocytes (Ki-67/TUNEL staining)” value is given as “inhibited”, the “hair matrix keratinocyte proliferation (Ki-67/TUNEL staining)” value is “stimulated” and the “hair shaft elongation in vitro” value was “did not translate to a significantly altered hair shaft elongation”. Besides, the “melanin synthesis in human hair follicles” value in [13] was “stimulate”.
As for `O=C(O)Cc1cc(I)c(Oc2ccc(O)c(I)c2)c(I)c1` [TRIAC, Triiodothyroacetic Acid], in data set [1] (person two, all HFs), the “hair follicle melanin content” value is “No significant effects”. Also, the “melanin content, overall comparison” value in [1] is “no effects”. In data set [2] (setting [19]), the “anagen (prolongation)” value was “prolonged anagen” and the catagen development result was “inhibited catagen development”. Besides, in data set [2], the “hair cycle staging … overall comparison” value was “able to prolong anagen and to inhibit catagen development”. Moreover, the “TGFβ2 immunoreactivity reduction, significance” value in [3] (person two, 1 pM and 100 pM concentration groups) is “significant effect”. For the same compound, the TGFβ2 immunoreactivity entry in data set [3] (person two, all concentrations) is “reduced”. For the same compound, in [16], the “penetration in human skin” value is recorded as “inferior penetration”. For the same compound, in data set [4] (person two), the “apoptosis (TUNEL)” value is listed as “inhibited (not significant)” and the “proliferation (Ki-67) of hair matrix keratinocytes” value was “slightly upregulated (not significant)”. Moreover, the “hair shaft elongation (inhibition), significance” value in data set [6] (occipital scalp HFs, person two, 1 pM) is “significant effect”. Moreover, in data set [6] (setting [20]), the hair shaft elongation entry was “slight inhibition”. For the same compound, the stability result in data set [17] is on record as “low stability”. Moreover, the MTCO1 protein expression result in data set [7] (person two) was “no significant change”. Also, the tyrosinase activity entry in [8] (person two, all HFs) is on record as “downregulated”. Besides, in [8] (person two, all HFs, 0.1 pM and 1 pM groups), the “tyrosinase activity downregulation, significance” value is listed as “significant”.
As for `CC(C)c1cc(Oc2c(Br)cc(NC(=O)CC(=O)O)cc2Br)ccc1O` [eprotirome, 3-[[3,5-dibromo-4-[4-hydroxy-3-(1-methylethyl)phenoxy]phenyl]amino]-3-oxo-propanoic acid], in data set [1] (person one, 100 pM, anagen HFs and all HFs), the melanin content result is “slightly increased”. The “melanin content increase, significance” value in [1] (person one, 100 pM, only anagen HFs) is “significant”. Moreover, the melanisation result in data set [1] (setting [21]) was “slightly increased”. The “melanin content, overall comparison” value in [1] is on record as “increased melanin content”. In data set [2] (person one), the “duration of anagen, macroscopically” value was “no major effect” and the hair cycle histomorphometry result is listed as “clear anagen-prolonging effect”. Further, in data set [2] (setting [19]), the “number of anagen HFs” value is given as “significantly increased” and the “number of catagen HFs” value is “decreased”. Further, the “hair cycle staging … overall comparison” value in data set [2] was “able to prolong anagen and to inhibit catagen development; also recorded: clearly prolongs anagen”. Also, in data set [18] (clinical trial in humans), the “effects on the heart” value is “did not provoke detectable effects”; the safety and tolerability entry was “safe and well tolerated”. Also, the “lowering of total and LDL cholesterol levels” value in data set [18] (moderately overweight and hypercholesterolemic subjects) is “up to 40%”. Moreover, the TGFβ2 immunoreactivity result in data set [3] (person one) is given as “significantly reduced”. The “TGFβ2 immunoreactivity reduction, concentration dependence” value in [3] (person one, 100 pM) is on record as “strongest effect”. For the same compound, the TGFβ2 immunoreactivity entry in data set [3] (person two, 1 pM concentration group) is listed as “significantly reduced”. The “expression of TGFβ2, overall” value in data set [3] (summary of the examples) is “significant reduced expression”. Moreover, the “proliferation of the hair matrix keratinocytes (Ki-67)” value in data set [4] (person one, 100 pM) is reported as “increased proliferation”. Moreover, in data set [4] (person two), the “apoptosis (TUNEL)” value was “no change” and the “proliferation (Ki-67) of hair matrix keratinocytes” value is “tendentially upregulated”. Further, the “proliferation of hair matrix keratinocytes, overall” value in [4] (summary of the examples) was “increased proliferation”. Also, the hair shaft elongation entry in data set [6] (occipital scalp HFs, person one, both doses (1 pM, 100 pM)) is recorded as “slightly stimulated”. In addition, the hair shaft elongation result in [6] (setting [20]) is given as “did not significantly affect”. Besides, in [7] (person one), the MTCO1 immunoreactivity entry is recorded as “significantly up-regulates”. Moreover, the MTCO1 protein expression entry in data set [7] (person two) is reported as “no significant change”. Further, the tyrosinase activity result in [8] (person one, 100 pM group) is “upregulated”. Moreover, in [8] (person one, 100 pM, all HFs), the “tyrosinase activity upregulation, significance” value is “significant”. For the same compound, in data set [8] (setting [21]), the tyrosinase activity entry is given as “slightly upregulated”. Moreover, the “tyrosinase activity, overall” value in [8] (summary of the examples) is given as “upregulation”.
